pIC50: −log10 of the molar value. Several values for one entry are separate records, joined by “and”; a condition that tells them apart may be missing. Equal values may be shown once. Read-outs that look alike come from different tables or passages of the source.
Molecular target: CDK12–cyclin K (Homo sapiens, UniProt Q9NYV4)
Experiment: Lanthascreen kinase binding assay, CDK12
Details: for pIC50: Lanthascreen; for IC50: Supplementary Table 2, read-out: Lanthascreen IC50 [nM] CDK12; for Lanthascreen raw signal, sheet CDK12: duplicates
Procedure: Lanthascreen experiments were performed using commercially available reagents (Thermo Fisher) and according to the manufacturer’s instructions.

[1] = compound 0.038147 nM, series r13
[2] = compound 0.152588 nM, series r13
[3] = compound 0.610352 nM, series r13
[4] = compound 9.76563 nM, series r13
[5] = compound 39.0625 nM, series r13
[6] = compound 0.038147 nM, series r49
[7] = compound 0.152588 nM, series r49
[8] = compound 0.610352 nM, series r49
[9] = compound 9.76563 nM, series r49
[10] = compound 39.0625 nM, series r49

Sequence of CDK12–cyclin K (Q9NYV4 713-1052): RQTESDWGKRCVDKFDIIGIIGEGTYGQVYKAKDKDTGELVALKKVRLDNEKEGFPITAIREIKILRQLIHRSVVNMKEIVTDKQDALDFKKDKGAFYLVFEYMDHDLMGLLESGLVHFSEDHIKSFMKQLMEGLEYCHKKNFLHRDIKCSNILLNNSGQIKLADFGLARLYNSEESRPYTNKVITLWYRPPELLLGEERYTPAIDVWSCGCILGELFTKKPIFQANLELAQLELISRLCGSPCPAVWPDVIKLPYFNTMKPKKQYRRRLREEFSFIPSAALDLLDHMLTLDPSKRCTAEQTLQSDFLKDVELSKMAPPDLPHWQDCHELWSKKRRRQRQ
Sequence of CDK12–cyclin K (O75909 1-267 partner limits assumed): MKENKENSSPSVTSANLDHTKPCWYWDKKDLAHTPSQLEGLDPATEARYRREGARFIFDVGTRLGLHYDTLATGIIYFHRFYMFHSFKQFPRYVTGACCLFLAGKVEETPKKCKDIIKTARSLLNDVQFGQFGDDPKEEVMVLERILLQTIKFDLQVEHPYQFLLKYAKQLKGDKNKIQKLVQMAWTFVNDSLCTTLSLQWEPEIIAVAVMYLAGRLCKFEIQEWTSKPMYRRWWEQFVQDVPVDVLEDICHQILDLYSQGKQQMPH

SMILES | IC50 [nM] | Lanthascreen raw signal, sheet CDK12 [1] | Lanthascreen raw signal, sheet CDK12 [2] | Lanthascreen raw signal, sheet CDK12 [3] | Lanthascreen raw signal, sheet CDK12 (compound 1.02544 nM, series r1) | Lanthascreen raw signal, sheet CDK12 (compound 3.15521 nM, series r1) | Lanthascreen raw signal, sheet CDK12 (compound 9.46563 nM, series r1) | Lanthascreen raw signal, sheet CDK12 [4] | Lanthascreen raw signal, sheet CDK12 (compound 31.5521 nM, series r1) | Lanthascreen raw signal, sheet CDK12 [5] | Lanthascreen raw signal, sheet CDK12 (compound 99.3891 nM, series r1) | Lanthascreen raw signal, sheet CDK12 (compound 156.25 nM, series r13) | Lanthascreen raw signal, sheet CDK12 (compound 315.521 nM, series r1) | Lanthascreen raw signal, sheet CDK12 (compound 625 nM, series r13) | Lanthascreen raw signal, sheet CDK12 (compound 2500 nM, series r13) | Lanthascreen raw signal, sheet CDK12 (compound 3155.21 nM, series r1) | Lanthascreen raw signal, sheet CDK12 (compound 10000 nM, series r13) | Lanthascreen raw signal, sheet CDK12 (compound 10002 nM, series r1) | Lanthascreen raw signal, sheet CDK12 [6] | Lanthascreen raw signal, sheet CDK12 [7] | also measured
Cc1cccc(Nc2nc(CC(=O)Nc3ncc(C)s3)cs2)n1 [HQ461] | > 10000 | 0.01223 and 0.01089 | 0.01192 and 0.01181 | 0.01147 and 0.01206 | 0.009388 and 0.008109 | 0.008061 and 0.009006 | 0.008944 and 0.009513 | 0.01062 and 0.01153 | 0.009567 and 0.009846 | 0.01003 and 0.0116 | 0.009103 and 0.01044 | 0.0115 and 0.0116 | 0.007883 and 0.008557 | 0.01055 and 0.01154 | 0.01098 and 0.01126 | 0.006491 and 0.00695 | 0.01006 and 0.01041 | 0.00959 and 0.009612 | – | – | pIC50 (read-out: CDK12 inhibition): < 5.00
Cn1cc(-n2cnc3c(NCc4nc5cc(Cl)c(Cl)cc5[nH]4)nc(N4CCOCC4)nc32)cn1 [SR-4835] | – | 0.01046 and 0.009983 | 0.009614 and 0.01041 | 0.01066 and 0.01021 | 0.008952 and 0.009485 | 0.008128 and 0.008332 | 0.008981 and 0.006574 | 0.009284 and 0.009045 | 0.007535 and 0.008876 | 0.008439 and 0.008567 | 0.006758 and 0.007046 | 0.008038 and 0.008664 | 0.006236 and 0.005797 | 0.008328 and 0.007759 | 0.007658 and 0.007398 | 0.006081 and 0.005159 | 0.007533 and 0.00783 | 0.004606 and 0.00667 | 0.007647 and 0.00729 | 0.009969 and 0.01054 | Lanthascreen raw signal, sheet CDK12 (compound 0.038147 nM, series r37): 0.01351 and 0.01182; Lanthascreen raw signal, sheet CDK12 (compound 0.152588 nM, series r37): 0.01248 and 0.01201; Lanthascreen raw signal, sheet CDK12 (compound 0.610352 nM, series r37): 0.01219 and 0.01189; Lanthascreen raw signal, sheet CDK12 [8]: 0.01058 and 0.01056; Lanthascreen raw signal, sheet CDK12 (compound 9.76563 nM, series r37): 0.009426 and 0.01016; Lanthascreen raw signal, sheet CDK12 [9]: 0.009267 and 0.008766; Lanthascreen raw signal, sheet CDK12 (compound 39.0625 nM, series r37): 0.009028 and 0.008999; Lanthascreen raw signal, sheet CDK12 [10]: 0.00795 and 0.007253; Lanthascreen raw signal, sheet CDK12 (compound 156.25 nM, series r37): 0.006404 and 0.007018; Lanthascreen raw signal, sheet CDK12 (compound 156.25 nM, series r49): 0.006482 and 0.006079; Lanthascreen raw signal, sheet CDK12 (compound 625 nM, series r37): 0.006628 and 0.006561; Lanthascreen raw signal, sheet CDK12 (compound 625 nM, series r49): 0.005855 and 0.00595; Lanthascreen raw signal, sheet CDK12 (compound 2500 nM, series r37): 0.006178 and 0.006049; Lanthascreen raw signal, sheet CDK12 (compound 2500 nM, series r49): 0.005776 and 0.005723; Lanthascreen raw signal, sheet CDK12 (compound 10000 nM, series r37): 0.005313 and 0.005643; Lanthascreen raw signal, sheet CDK12 (compound 10000 nM, series r49): 0.005957 and 0.005417
CC(C)c1nn(-c2c(Cl)cccc2Cl)c2nc(Cc3ccc(OCCO)cc3)[nH]c(=O)c12 [compound 21195] | 31 | – | – | – | 0.009771 and 0.007848 | 0.009162 and 0.009522 | 0.007787 and 0.0086 | – | 0.006914 and 0.007088 | – | 0.004636 and 0.007689 | – | 0.005556 and 0.004599 | – | – | 0.006552 and 0.005285 | – | 0.00595 and 0.006099 | 0.008046 and 0.008167 | 0.01001 and 0.009391 | Lanthascreen raw signal, sheet CDK12 [8]: 0.008764 and 0.009174; Lanthascreen raw signal, sheet CDK12 (compound 0.76 nM, series r25): 0.01117 and 0.01013; Lanthascreen raw signal, sheet CDK12 (compound 4.57247 nM, series r25): 0.01016 and 0.01236; Lanthascreen raw signal, sheet CDK12 [9]: 0.007441 and 0.00728; Lanthascreen raw signal, sheet CDK12 (compound 13.7174 nM, series r25): 0.01024 and 0.009436; Lanthascreen raw signal, sheet CDK12 [10]: 0.007229 and 0.006516; Lanthascreen raw signal, sheet CDK12 (compound 41.1523 nM, series r25): 0.009216 and 0.008226; Lanthascreen raw signal, sheet CDK12 (compound 123.457 nM, series r25): 0.007812 and 0.006741; Lanthascreen raw signal, sheet CDK12 (compound 156.25 nM, series r49): 0.006172 and 0.006187; Lanthascreen raw signal, sheet CDK12 (compound 370.37 nM, series r25): 0.006605 and 0.00608; Lanthascreen raw signal, sheet CDK12 (compound 625 nM, series r49): 0.006151 and 0.006004; Lanthascreen raw signal, sheet CDK12 (compound 2500 nM, series r49): 0.005584 and 0.005705; Lanthascreen raw signal, sheet CDK12 (compound 3333.33 nM, series r25): 0.006042 and 0.006492; Lanthascreen raw signal, sheet CDK12 (compound 10000 nM, series r25): 0.006222 and 0.005571; Lanthascreen raw signal, sheet CDK12 (compound 10000 nM, series r49): 0.005751 and 0.005801
O=C(CSc1nnc2c(n1)[nH]c1ccccc12)Nc1ccc(Cl)cn1 [dCeMM2] | > 10000 | 0.0112 and 0.01094 | 0.01131 and 0.01094 | 0.0113 and 0.01155 | 0.009008 and 0.01048 | 0.01033 and 0.00928 | 0.007656 and 0.01097 | 0.01084 and 0.01176 | 0.008129 and 0.008647 | 0.01123 and 0.01099 | 0.008644 and 0.009455 | 0.01158 and 0.0119 | 0.008456 and 0.007711 | 0.01045 and 0.01083 | 0.01145 and 0.01174 | 0.008398 and 0.008586 | 0.01298 and 0.0125 | 0.01123 and 0.01167 | – | – | pIC50 (average, Extended Data Fig. 8, read-out: CDK12 IC50): < 5.00
O=C(CSc1nc2ccccc2[nH]1)Nc1ccc(Cl)cn1 [dCeMM3] | 2670 | 0.01104 and 0.01163 | 0.01112 and 0.01168 | 0.01247 and 0.01238 | 0.009603 and 0.009325 | 0.009514 and 0.008733 | 0.008364 and 0.009802 | 0.01196 and 0.01162 | 0.009806 and 0.008597 | 0.01144 and 0.01131 | 0.01036 and 0.01052 | 0.01124 and 0.01129 | 0.008735 and 0.009176 | 0.01063 and 0.01139 | 0.009917 and 0.009154 | 0.007612 and 0.007481 | 0.007835 and 0.008247 | 0.006896 and 0.007143 | – | – | –

From article PMC10746543, “Design principles for cyclin K molecular glue degraders” (Nature Chemical Biology, 2023)
